We go through 21 molecules from patent publication US8580809B2, “Filamin A-binding anti-inflammatory analgesic” (Pain Therapeutics, Inc., priority 2009, dated 2013).

The experiment addresses T1, mu opiate receptor (MOR) (Rattus norvegicus, UniProt P33535).
T1 construct: from tissue; host or cells: rat striatal membrane preparation
Description: MOR agonist activity using [35S]GTPγS binding assay in striatal membranes. In kind it is biochemical. The note with it: for MOR agonist activity, [35S]GTPγS binding to Gαo, FLNA-binding compound as agonist 0.1 μM: 0.1 μM compound; for MOR agonist activity, [35S]GTPγS binding to Gαo, FLNA-binding compound as agonist 0.1 μM / MOR agonist activity, [35S]GTPγS binding to Gαo, FLNA-binding compound as agonist 1 μM: striatal membranes; for MOR agonist activity, [35S]GTPγS binding to Gαo, 1 μM + BFNA: 1 μM compound + 1 μM β-funaltrexamine; for MOR agonist activity, [35S]GTPγS binding to Gαo, FLNA-binding compound as agonist 1 μM: 1 μM compound. The method, then:
To assess the mu opiate receptor (MOR) agonist activity of positive compounds from the FLNA screening, compounds were tested in a [^35S]GTPγS binding assay using striatal membranes.
Striatal tissue was homogenized in 10 volumes of ice cold 25 mM HEPES buffer, pH 7.4, which contained 1 mM EGTA, 100 mM sucrose, 50 μg/ml leupeptin, 0.04 mM PMSF, 2 μg/ml soybean trypsin inhibitor and 0.2% 2-mercaptoethanol. The homogenates were centrifuged at 800×g for 5 minutes and the supernatants were centrifuged at 49,000×g for 20 minutes.
The resultant striatal membrane preparation (200 μg) was admixed and maintained (incubated) at 30° C. for 5 minutes in reaction buffer as above that additionally contained 1 mM MgCl2 and 0.5 nM [^35S]GTPγS (0.1 μCi/assay, PerkinElmer Life and Analytical Sciences) in a total volume of 250 μl and continued for 5 minutes in the absence or presence of 0.1-10 μM of an assayed compound of interest. The reaction was terminated by dilution with 750 μl of ice-cold reaction buffer that contained 20 mM MgCl2 and 1 mM EGTA and immediate centrifugation at 16,000×g for 5 minutes.
The resulting pellet was solubilized by sonicating for 10 seconds in 0.5 ml of immunoprecipitation buffer containing 0.5% digitonin, 0.2% sodium cholate and 0.5% NP-40. Normal rabbit serum (1 μl) was added to 1 ml of lysate and incubated at 25° C. for 30 minutes. Nonspecific immune complexes were removed by incubation with 25 μl of protein A/G-conjugated agarose beads at 25° C. for 30 minutes followed by centrifugation at 5,000×g at 4° C. for 5 minutes. The supernatant was divided and separately incubated at 25° C. for 30 minutes with antibodies raised against Gαo proteins (1:1,000 dilutions).
The immunocomplexes so formed were collected by incubation at 25° C. for 30 minutes with 40 μl of agarose-conjugated protein A/G beads and centrifugation at 5,000×g at 4° C. for 5 minutes. The pellet was washed and suspended in buffer containing 50 mM Tris-HCl, pH 8.0, and 1% NP-40. The radioactivity in the suspension was determined by liquid scintillation spectrometry. […] DAMGO (H-Tyr-D-Ala-Gly-N-MePhe-Gly-OH; 1 or 10 μM) was used as a positive control.

T1 sequence (P33535 whole entry): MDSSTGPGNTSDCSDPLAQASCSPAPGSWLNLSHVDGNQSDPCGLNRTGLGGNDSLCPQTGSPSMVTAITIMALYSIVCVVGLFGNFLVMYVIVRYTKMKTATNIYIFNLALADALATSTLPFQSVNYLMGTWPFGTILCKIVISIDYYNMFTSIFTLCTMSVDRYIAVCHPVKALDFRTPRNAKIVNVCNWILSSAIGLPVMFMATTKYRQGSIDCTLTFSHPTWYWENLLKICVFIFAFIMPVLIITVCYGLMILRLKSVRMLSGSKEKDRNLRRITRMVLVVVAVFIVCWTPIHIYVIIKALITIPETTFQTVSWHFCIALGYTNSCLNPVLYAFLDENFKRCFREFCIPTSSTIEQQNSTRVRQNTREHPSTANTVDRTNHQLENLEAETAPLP

Regarding `CC(=O)c1ccc(S(=O)(=O)N2CCC3(CC2)NC(=O)C(Cc2cnc[nH]2)N3S(=O)(=O)c2ccc(C(C)=O)cc2)cc1` (stereo not drawn) [Compound C0084M], the “MOR agonist activity, [35S]GTPγS binding to Gαo, FLNA-binding compound as agonist 0.1 μM” value (“MOR agonist activity … as agonist 0.1 μM” below) came to 163.1%; the “MOR agonist activity, [35S]GTPγS binding to Gαo, 1 μM + BFNA” value (from here on “MOR agonist activity … 1 μM + BFNA”) is reported as 133.2%; the “MOR agonist activity, [35S]GTPγS binding to Gαo, FLNA-binding compound as agonist 1 μM” value (“MOR agonist activity … as agonist 1 μM” for short) was determined as 255.5%.
For `COc1ccc(C(=O)N2CCC3(CC2)OCCN3C(=O)c2ccc(OC)cc2)cc1` [Compound C0017], in that order: 153.8%, 94.1% and 284.5%.
The like results for `O=S(=O)(c1ccc(Oc2ccccc2)cc1)N1CCC2(CC1)OCCN2S(=O)(=O)c1ccc(Oc2ccccc2)cc1` [Compound C0149M] were, in that order, 209.8%, 93.4% and 406.7%.
Regarding `COc1ccc(S(=O)(=O)N2CCC3(CC2)OCCN3S(=O)(=O)c2ccc(OC)c(OC)c2)cc1OC` [Compound C0049], the “MOR agonist activity … as agonist 0.1 μM” value is on record as 106.6%; the “MOR agonist activity … 1 μM + BFNA” value is 81.0%; the “MOR agonist activity … as agonist 1 μM” value was 210.0%.
The like results for `O=C1CN(Cc2ccccc2)C2(CCN(S(=O)(=O)c3cc(Cl)cc(Cl)c3O)CC2)N1` [Compound C0138M] were, in that order, 126.9%, 51.5% and 183.9%.
Take `O=S(=O)(c1ccc(Br)cc1C(F)(F)F)N1CCC2(CC1)OCCN2S(=O)(=O)c1ccc(Br)cc1C(F)(F)F` [Compound C0068]: the “MOR agonist activity … as agonist 0.1 μM” value is given as 107.2%; the “MOR agonist activity … 1 μM + BFNA” value came out at 165.9%; the “MOR agonist activity … as agonist 1 μM” value is on record as 263.1%.
The like results for `O=S(=O)(c1ccc(C(F)(F)F)cc1Br)N1CCC2(CC1)OCCN2S(=O)(=O)c1ccc(C(F)(F)F)cc1Br` [Compound C0071] were, in that order, 276.3%, 177.1% and 355.3%.
As for `O=S(=O)(c1csc2ccccc12)N1CCC2(CC1)OCCN2S(=O)(=O)c1csc2ccccc12` [Compound C0150M], the “MOR agonist activity … as agonist 0.1 μM” value stood at 167.1%; the “MOR agonist activity … 1 μM + BFNA” value is given as 158.1%; the “MOR agonist activity … as agonist 1 μM” value turned out to be 423.1%.
The like results for `O=S(=O)(c1ccc(Br)cc1F)N1CCC2(CC1)OCCN2S(=O)(=O)c1ccc(Br)cc1F` [Compound C0078] were, in that order, 138.1%, 170.7% and 236.6%.
For the molecule `O=S(=O)(c1ccc(Br)cc1)N1CCC2(CC1)OCCN2S(=O)(=O)c1ccc(Br)cc1` [Compound C0025], the “MOR agonist activity … as agonist 0.1 μM” value came to 235.7%; the “MOR agonist activity … 1 μM + BFNA” value turned out to be 80.2%; the “MOR agonist activity … as agonist 1 μM” value was 320.7%.
With `O=S(=O)(c1ccccc1)N1CCC2(CC1)OCCN2S(=O)(=O)c1ccccc1` [Compound C0016], the “MOR agonist activity … as agonist 0.1 μM” value came to 172.7%; the “MOR agonist activity … 1 μM + BFNA” value is 96.7%; the “MOR agonist activity … as agonist 1 μM” value is reported as 230.5%.
The like results for `COc1ccccc1S(=O)(=O)N1CCC2(CC1)OCCN2S(=O)(=O)c1ccccc1OC` [Compound C0003] were, in that order, 162.3%, 107.7% and 215.9%.
For `C[C@@H](NC(=O)[C@@H](N)Cc1ccc(O)cc1)C(=O)NCC(=O)N(C)[C@@H](Cc1ccccc1)C(=O)NCCO` [DAMGO, reference compound], in that order: 168.5%, 53.2% and 266.1%.
Take `COc1ccc(S(=O)(=O)N2CCC3(OCCN3S(=O)(=O)c3ccc(OC)cc3)C3CCCCC32)cc1` (stereo not drawn) [Compound C0144M]: the “MOR agonist activity … as agonist 0.1 μM” value amounted to 186.3%; the “MOR agonist activity … 1 μM + BFNA” value worked out at 125.9%; the “MOR agonist activity … as agonist 1 μM” value is 295.9%.
For `COc1cccc(S(=O)(=O)N2CCC3(CC2)OCCN3S(=O)(=O)c2cccc(OC)c2)c1` [Compound C0002], in that order: 88.4%, 3.9% and 93.8%.
The like results for `O=S(=O)(c1ccc(F)c(F)c1)N1CCC2(CC1)OCCN2S(=O)(=O)c1ccc(F)c(F)c1` [Compound C0072] were, in that order, 172.7%, 67.1% and 259.1%.
For `COC(=O)c1ccc(S(=O)(=O)N2CCC3(CC2)OCCN3S(=O)(=O)c2ccc(C(=O)OC)cc2)cc1` [Compound C0028], in that order: 93.9%, 78.4% and 132.4%.
As to `CC(=O)c1ccc(S(=O)(=O)N2CCC3(CC2)NC(=O)CN3Cc2ccccc2)cc1` [Compound C0085M], the “MOR agonist activity … as agonist 0.1 μM” value was determined as 211.6%; the “MOR agonist activity … 1 μM + BFNA” value was 43.7%; the “MOR agonist activity … as agonist 1 μM” value was determined as 246.2%.
With `CC(=O)c1ccc(S(=O)(=O)N2CCC3(CC2)OC(CN(C)C)CN3S(=O)(=O)c2ccc(C(C)=O)cc2)cc1` (stereo not drawn) [Compound C0065], the “MOR agonist activity … as agonist 0.1 μM” value is 198.3%; the “MOR agonist activity … 1 μM + BFNA” value is 47.7%; the “MOR agonist activity … as agonist 1 μM” value was 279.5%.
For `O=S(=O)(c1ccc(Cl)cc1)N1CCC2(CC1)OCCN2S(=O)(=O)c1ccc(Cl)cc1` [Compound C0067], in that order: 142.7%, 33.5% and 179.0%.
The like results for `O=S(=O)(c1cccs1)N1CCC2(CC1)OCCN2S(=O)(=O)c1cccs1` [Compound C0141M] were, in that order, 161.5%, 47.9% and 213.9%.
